The compounds below were run against Human α2δ-1 Subunit of Cav2.2 Calcium Channel (Homo sapiens, UniProt P54289) (assay: biochemical). Details: not given.
Assay type: binding

Sequence of Human α2δ-1 Subunit of Cav2.2 Calcium Channel (P54289 25-1103): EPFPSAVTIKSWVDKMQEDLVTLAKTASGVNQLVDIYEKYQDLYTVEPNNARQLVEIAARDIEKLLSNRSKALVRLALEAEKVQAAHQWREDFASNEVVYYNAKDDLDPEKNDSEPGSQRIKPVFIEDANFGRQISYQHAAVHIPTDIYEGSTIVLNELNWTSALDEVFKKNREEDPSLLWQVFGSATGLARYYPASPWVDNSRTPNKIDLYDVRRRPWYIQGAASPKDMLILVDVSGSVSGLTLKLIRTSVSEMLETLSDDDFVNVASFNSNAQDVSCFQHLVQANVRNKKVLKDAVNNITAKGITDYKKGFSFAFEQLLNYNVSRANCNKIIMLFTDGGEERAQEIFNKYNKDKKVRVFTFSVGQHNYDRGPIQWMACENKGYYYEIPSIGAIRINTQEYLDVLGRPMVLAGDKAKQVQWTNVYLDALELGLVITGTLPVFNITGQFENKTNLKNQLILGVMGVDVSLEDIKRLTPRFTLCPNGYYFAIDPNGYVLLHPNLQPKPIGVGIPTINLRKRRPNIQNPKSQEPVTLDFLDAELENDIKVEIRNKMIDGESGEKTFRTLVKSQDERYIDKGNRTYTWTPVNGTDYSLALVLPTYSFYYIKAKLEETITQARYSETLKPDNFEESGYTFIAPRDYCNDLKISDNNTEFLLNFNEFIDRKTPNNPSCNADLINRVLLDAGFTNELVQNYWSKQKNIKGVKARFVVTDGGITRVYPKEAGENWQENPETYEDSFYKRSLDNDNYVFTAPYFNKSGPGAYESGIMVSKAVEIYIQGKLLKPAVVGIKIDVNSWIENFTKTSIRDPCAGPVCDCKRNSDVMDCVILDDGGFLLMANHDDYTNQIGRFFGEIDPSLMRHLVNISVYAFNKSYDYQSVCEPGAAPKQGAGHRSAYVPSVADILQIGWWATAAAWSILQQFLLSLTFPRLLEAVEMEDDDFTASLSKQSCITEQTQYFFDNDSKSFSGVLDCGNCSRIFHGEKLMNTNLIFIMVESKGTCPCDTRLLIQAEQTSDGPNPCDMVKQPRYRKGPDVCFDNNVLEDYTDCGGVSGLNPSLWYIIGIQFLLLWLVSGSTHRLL

| SMILES | Ki [nM] |
| --- | --- |
| CNCCC(Oc1ccc(CCN2CCC(c3ccccc3)(N(C)C)CC2)cc1)c1cccs1 (stereo not drawn) [Example 57, N,N-dimethyl-1-(4-(3-(methylamino)-1-(thiophen-2-yl)propoxy)phenethyl)-4-phenylpiperidin-4-amine] | > 3000 |
| CNCC[C@H](Oc1cccc(CN2CCC(c3cccc(O)c3)(N(C)C)CC2)c1)c1cccs1 [Example 14, (S)-3-(4-(dimethylamino)-1-(3-(3-(methylamino)-1-(thiophen-2-yl)propoxy)benzyl)piperidin-4-yl)phenol] | 100 to 500 |
| CNCCC(Oc1cccc(CN2CCC(c3cccc(O)c3)(N(C)C)CC2)c1)c1cccs1 (stereo not drawn) [Example 5, 3-(4-(Dimethylamino)-1-(3-(3-(methylamino)-1-(thiophen-2-yl)propoxy)benzyl)piperidin-4-yl)phenol] | 100 to 500 |
| CNCC[C@@H](Oc1cccc(CN2CCC(c3ccccc3)(N(C)C)CC2)c1)c1cccs1 [Example 16, (R)-N,N-dimethyl-1-(3-(3-(methylamino)-1-(thiophen-2-yl)propoxy)benzyl)-4-phenylpiperidin-4-amine] | 500 to 3000 |
| CNCCC(Oc1ccc(CN2CCCc3ccccc32)c(F)c1)c1cccs1 (stereo not drawn) [Example 54, 3-(4-((3,4-Dihydroquinolin-1(2H)-yl)methyl)-3-fluorophenoxy)-N-methyl-3-(thiphen-2-yl)propan-1-amine] | > 3000 |
| CNCCC(Oc1cccc(CN2CCC(c3cccc(O)c3)CC2)c1)c1cccs1 (stereo not drawn) [Example 3, 3-(1-(3-(3-(Methylamino)-1-(thiophen-2-yl)propoxy)benzyl)piperidin-4-yl)phenol] | 100 to 500 |
| CNCCC(Oc1cccc(CN2CCC(c3ccccc3)(N(C)C)CC2)c1)c1cccs1 (stereo not drawn) [Example 2, N,N-dimethyl-1-(3-(3-(methylamino)-1-(thiophen-2-yl)propoxy)benzyl)-4-phenylpiperidin-4-amine] | 100 to 500 |
| CNCCC(Oc1cccc(N2C[C@@H](C)N[C@@H](C)C2)c1)c1cccs1 (stereo partly drawn) [Example 44, 3-(3-((3S,5R)-3,5-dimethylpiperazin-1-yl)phenoxy)-N-methyl-3-(thiophen-2-yl)propan-1-amine] | 100 to 500 |
| CNCC[C@@H](Oc1cccc(CN2CCC(c3cccc(O)c3)(N(C)C)CC2)c1)c1cccs1 [Example 17, (R)-3-(4-(dimethylamino)-1-(3-(3-(methylamino)-1-(thiophen-2-yl)propoxy)benzyl)piperidin-4-yl)phenol] | 100 to 500 |

Same assay, conditions: Table 1; human α2δ-1 enriched membranes, 15 nM [3H]-Gabapentin; read-out: Ki (nM) alpha2delta Hum

| SMILES | Ki [nM] |
| --- | --- |
| CNCCC(Oc1cccc(N2CCC(c3ccccc3)(N(C)C)CC2)c1)c1cccs1 (stereo not drawn) [Example 43, N,N-dimethyl-1-(3-(3-(methylamino)-1-(thiophen-2-yl)propoxy)phenyl)-4-phenylpiperidin-4-amine] | 500 to 3000 |
| CNCC[C@@H](OCc1cccc(CN2CCC(c3ccccc3)(N(C)C)CC2)c1)c1cccs1 [Example 22, (R)-N,N-dimethyl-1-(3-((3-(methylamino)-1-(thiophen-2-yl)propoxy)methyl)benzyl)-4-phenylpiperidin-4-amine] | 500 to 3000 |
| CNCCC(OCc1cccc(CN2CCC(c3ccccc3)(N(C)C)CC2)c1)c1cccs1 (stereo not drawn) [Example 20, N,N-dimethyl-1-(3-((3-(methylamino)-1-(thiophen-2-yl)propoxy)methyl)benzyl)-4-phenylpiperidin-4-amine] | 500 to 3000 |

Same assay, conditions: Table 2 (dual compounds); human α2δ-1 enriched membranes, 15 nM [3H]-Gabapentin; read-out: Ki (nM) alpha2delta Hum

| SMILES | Ki [nM] |
| --- | --- |
| CNCCC(Oc1cccc(N2CCC(c3ccccc3)(N(C)C)CC2)c1)c1cccs1 (stereo not drawn) [Example 43, N,N-dimethyl-1-(3-(3-(methylamino)-1-(thiophen-2-yl)propoxy)phenyl)-4-phenylpiperidin-4-amine] | 500 to 3000 |
| CNCC[C@@H](OCc1cccc(CN2CCC(c3ccccc3)(N(C)C)CC2)c1)c1cccs1 [Example 22, (R)-N,N-dimethyl-1-(3-((3-(methylamino)-1-(thiophen-2-yl)propoxy)methyl)benzyl)-4-phenylpiperidin-4-amine] | 500 to 3000 |
| CNCCC(OCc1cccc(CN2CCC(c3ccccc3)(N(C)C)CC2)c1)c1cccs1 (stereo not drawn) [Example 20, N,N-dimethyl-1-(3-((3-(methylamino)-1-(thiophen-2-yl)propoxy)methyl)benzyl)-4-phenylpiperidin-4-amine] | 500 to 3000 |

Same assay, conditions: read-out: Ki (nM) alpha2delta Hum

| Ki [nM] | SMILES |
| --- | --- |
| > 3000 | CNCCC(Oc1cccc(C(=O)N2CCCCC2)c1)c1ccccc1 (stereo not drawn) [Example 8, (3-(3-(Methylamino)-1-phenylpropoxy)phenyl)(piperidin-1-yl)methanone] |
| > 3000 | CNCCC(Oc1ccc(CN2CCN(C)CC2)cc1)c1cccs1 (stereo not drawn) [Example 52, N-methyl-3-(4-((4-methylpiperazin-1-yl)methyl)phenoxy)-3-(thiophen-2-yl)propan-1-amine] |
| 500 to 3000 | CNCCC(Oc1cccc(N2CCN(C)CC2)c1)c1ccccc1 (stereo not drawn) [Example 35, N-methyl-3-(3-(4-methylpiperazin-1-yl)phenoxy)-3-phenylpropan-1-amine] |
| 500 to 3000 | CNCCC(Oc1cccc(CN2CCNCC2)c1)c1cccs1 (stereo not drawn) [Example 6, N-methyl-3-(3-(piperazin-1-ylmethyl)phenoxy)-3-(thiophen-2-yl)propan-1-amine] |
| > 3000 | CNCCC(Oc1cccc(C(=O)N2CCN(C)CC2)c1)c1ccccc1 (stereo not drawn) [Example 9, (3-(3-(Methylamino)-1-phenylpropoxy)phenyl)(4-methylpiperazin-1-yl)methanone] |
| > 3000 | CNCCC(OCc1cccc(N2CCN(C)CC2=O)c1)c1ccccc1 (stereo not drawn) [Example 41, 4-Methyl-1-(3-((3-(methylamino)-1-phenylpropoxy)methyl)phenyl)piperazin-2-one] |
| 500 to 3000 | CNCC[C@H](Oc1ccc(CN2CCc3ccccc3C2=O)cc1)c1cccs1 [Example 50, (S)-(4-(3-(methylamino)-1-(thiophen-2-yl)propoxy)benzyl)-3,4-dihydroisoquinolin-1(2H)-one] |
| > 3000 | CNCCC(Oc1cccc(C(=O)N2CCN(C)CC2)c1)c1cccs1 (stereo not drawn) [Example 11, (3-(3-(Methylamino)-1-(thiophen-2-yl)propoxy)phenyl)(4-methylpiperazin-1-yl)methanone] |
| 500 to 3000 | CC[C@@]1(N2CCN(CCc3cccc(O[C@H](CCNC)c4ccccc4)c3)CC2)CCOC(C)(C)C1 [Example 12b, (R)-3-(3-(2-(4-((R)-4-ethyl-2,2-dimethyltetrahydro-2H-pyran-4-yl)piperazin-1-yl)ethyl)phenoxy)-N-methyl-3-phenylpropan-1-amine] |
| > 3000 | CNCCC(Oc1cccc(-n2nc(C)cc2C)c1)c1ccccc1 (stereo not drawn) [Example 13] |
| > 3000 | CNCCC(OCc1ccc(N2CCC(c3ccccc3)(N(C)C)CC2)cc1)c1cccs1 (stereo not drawn) [Example 49, N,N-dimethyl-1-(4-((3-(methylamino)-1-(thiophen-2-yl)propoxy)methyl)phenyl)-4-phenylpiperidin-4-amine] |
| 500 to 3000 | CNCCC(OCc1cccc(N2CCC(N(C)C)CC2)c1)c1ccccc1 (stereo not drawn) [Example 48, N,N-dimethyl-1-(3-((3-(methylamino)-1-phenylpropoxy)methyl)phenyl)piperidin-4-amine] |
| > 3000 | CNCCC(Oc1cccc(N2CCCCC2=O)c1)c1ccccc1 (stereo not drawn) [Example 33, 1-(3-(3-(Methylamino)-1-phenylpropoxy)phenyl)piperidin-2-one] |
| 500 to 3000 | CNCC[C@@H](OCc1cccc(CN2CCN([C@]3(C(=O)c4ccccn4)CCOC(C)(C)C3)CC2)c1)c1ccccc1 [Example 29, ((R)-2,2-dimethyl-4-(4-(3-(((R)-3-(methylamino)-1-phenylpropoxy)methyl)benzyl)piperazin-1-yl)tetrahydro-2H-pyran-4-yl)(pyridin-2-yl)methanone] |
| 500 to 3000 | CNCCC(OCc1cccc(N2CCCCC2=O)c1)c1cccs1 (stereo not drawn) [Example 39, 1-(3-((3-(Methylamino)-1-(thiophen-2-yl)propoxy)methyl)phenyl)piperidin-2-one] |
| > 3000 | CNCCC(Oc1cccc(N2CCCCC2=O)c1)c1cccs1 (stereo not drawn) [Example 34, 1-(3-(3-(Methylamino)-1-(thiophen-2-yl)propoxy)phenyl)piperidin-2-one] |
| 500 to 3000 | CC[C@]1(N2CCN(Cc3cccc(CO[C@H](CCNC)c4ccccc4)c3)CC2)CCOC(C)(C)C1 [Example 31, (R)-3-((3-((4-((S)-4-ethyl-2,2-dimethyltetrahydro-2H-pyran-4-yl)piperazin-1-yl)methyl)benzyl)oxy)-N-methyl-3-phenylpropan-1-amine] |
| > 3000 | CNCCC(Oc1ccc(C(=O)N2CCC(c3ccccc3)(N(C)C)CC2)cc1)c1cccs1 (stereo not drawn) [Example 56, (4-(Dimethylamino)-4-phenylpiperidin-1-yl)(4-(3-(methylamino)-1-(thiophen-2-yl)propoxy)phenyl)methanone] |
| > 3000 | CNCCC(Oc1cccc(C(=O)N2CCOCC2)c1)c1ccccc1 (stereo not drawn) [Example 10, (3-(3-(Methylamino)-1-phenylpropoxy)phenyl)(morpholino)methanone] |
| > 3000 | CC[C@@]1(N2CCN(Cc3cccc(CO[C@H](CCNC)c4ccccc4)c3)CC2)CCOC(C)(C)C1 [Example 30, (R)-3-((3-((4-((R)-4-ethyl-2,2-dimethyltetrahydro-2H-pyran-4-yl)piperazin-1-yl)methyl)benzyl)oxy)-N-methyl-3-phenylpropan-1-amine] |
| 500 to 3000 | CNCCC(Oc1cccc(CN2C[C@@H](C)N[C@@H](C)C2)c1)c1cccs1 (stereo partly drawn) [Example 1, 3-(3-((3,5-Dimethylpiperazin-1-yl)methyl)phenoxy)-N-methyl-3-(thiophen-2-yl)propan-1-amine] |
| 500 to 3000 | CNCCC(Oc1cccc(N2CCNCC2)c1)c1cccs1 (stereo not drawn) [Example 42, N-methyl-3-(3-(piperazin-1-yl)phenoxy)-3-(thiophen-2-yl)propan-1-amine] |
| > 3000 | CNCC[C@H](Oc1cccc(CN2CCN([C@]3(C(=O)c4ccccn4)CCOC(C)(C)C3)CC2)c1)c1cccs1 [Example 18, ((R)-2,2-dimethyl-4-(4-(3-((S)-3-(methylamino)-1-(thiophen-2-yl)propoxy)benzyl)piperazin-1-yl)tetrahyrdro-2H-pyran-4-yl)(pyridin-2-yl)methanone] |
| 500 to 3000 | CNCCC(OCc1cccc(N2CCCCC2=O)c1)c1ccccc1 (stereo not drawn) [Example 38, 1-(3-((3-(Methylamino)-1-phenylpropoxy)methyl)phenyl)piperidin-2-one] |
| 500 to 3000 | CNCCC(Oc1cccc(N2CCN(C)CC2)c1)c1cccs1 (stereo not drawn) [Example 37, N-methyl-3-(3-(4-methylpiperazin-1-yl)phenoxy)-3-(thiophen-2-yl)propan-1-amine] |
| > 3000 | CNCCC(Oc1cccc(N2CCN(C)CC2=O)c1)c1cccs1 (stereo not drawn) [Example 36, 4-Methyl-1-(3-(3-(methylamino)-1-(thiophen-2-yl)propoxy)phenyl)piperazin-2-one] |
| 500 to 3000 | CNCCC(OCc1cccc(N2CCN(C)CC2)c1)c1ccccc1 (stereo not drawn) [Example 40, N-methyl-3-((3-(4-methylpiperazin-1-yl)benzyl)oxy)-3-phenylpropan-1-amine] |

— patent publication US20200270237A1 (priority 2017, published 2020)
